Test results published in article PMC5218480 (PLoS ONE, 2017).

Test system: MV-4-11 cells
Assay: Gene expression microarray analysis (Affymetrix PrimeView) and GSEA
Type: cell-based, human
Set-up: RFU PODN (11730768_x_at) / Fold change /veh PODN (11730768_x_at) / RFU LINC00158 (11744669_a_at) / Fold change /veh LINC00158 (11744669_a_at) / RFU DUSP10 (11751237_a_at) / Fold change /veh DUSP10 (11751237_a_at) / RFU ID3 (11757404_x_at) / Fold change /veh ID3 (11757404_x_at) / RFU PLEKHG5 (11737974_s_at) / Fold change /veh PLEKHG5 (11737974_s_at) / RFU LRRC4B (11730491_at) / Fold change /veh LRRC4B (11730491_at) / RFU GIMAP4 (11747438_a_at) / Fold change /veh GIMAP4 (11747438_a_at) / RFU KRT8 (11758183_x_at) / Fold change /veh KRT8 (11758183_x_at) / RFU CNN1 (11734310_a_at) / Fold change /veh CNN1 (11734310_a_at) / RFU VPS37D (11726825_at) / Fold change /veh VPS37D (11726825_at) / RFU C10orf10 (11716522_x_at) / Fold change /veh C10orf10 (11716522_x_at) / RFU KIR2DL2 /// KIR2DL4 /// KIR2DL5A /// KIR2DL5B /// KIR2DS1 /// KIR2DS2 /// KIR2DS3 /// KIR2DS4 /// KIR3DL3 /// KIR3DL3 /// KIR3DS1 (11738374_at) / Fold change /veh KIR2DL2 /// KIR2DL4 /// KIR2DL5A /// KIR2DL5B /// KIR2DS1 /// KIR2DS2 /// KIR2DS3 /// KIR2DS4 /// KIR3DL3 /// KIR3DL3 /// KIR3DS1 (11738374_at) / RFU C1QL1 (11718748_at) / Fold change /veh C1QL1 (11718748_at) / RFU TMPRSS4 (11747572_a_at) / Fold change /veh TMPRSS4 (11747572_a_at) / RFU HAMP (11756126_x_at) / Fold change /veh HAMP (11756126_x_at) / RFU RNFT2 (11725882_a_at) / Fold change /veh RNFT2 (11725882_a_at) / RFU NR4A2 (11747474_a_at) / Fold change /veh NR4A2 (11747474_a_at) / RFU ABCC12 (11746883_a_at) / Fold change /veh ABCC12 (11746883_a_at) / RFU TMEM136 (11760407_x_at) / Fold change /veh TMEM136 (11760407_x_at) / RFU CLDN22 /// WWC2 (11732394_at) / Fold change /veh CLDN22 /// WWC2 (11732394_at) / RFU HLA-DPB1 (11760878_x_at) / Fold change /veh HLA-DPB1 (11760878_x_at) / RFU SPINT1 (11716480_a_at) / Fold change /veh SPINT1 (11716480_a_at) / RFU GAP43 (11754022_s_at) / Fold change /veh GAP43 (11754022_s_at) / RFU A4GNT (11735810_at) / Fold change /veh A4GNT (11735810_at) / RFU PRB3 (11715151_x_at) / Fold change /veh PRB3 (11715151_x_at) / RFU TUBB4B (11761932_at) / Fold change /veh TUBB4B (11761932_at) / RFU CAPN14 (11732068_a_at) / Fold change /veh CAPN14 (11732068_a_at) / RFU TMCC2 (11721928_a_at) / Fold change /veh TMCC2 (11721928_a_at) / RFU IRGQ (11745062_a_at) / Fold change /veh IRGQ (11745062_a_at) / RFU FAM174B (11720279_a_at) / Fold change /veh FAM174B (11720279_a_at) / RFU TMPRSS4 (11748680_a_at) / Fold change /veh TMPRSS4 (11748680_a_at) / RFU FAM212B (11763350_a_at) / Fold change /veh FAM212B (11763350_a_at) / RFU PLEKHG5 (11743358_a_at) / Fold change /veh PLEKHG5 (11743358_a_at) / RFU ZSCAN30 (11745921_a_at) / Fold change /veh ZSCAN30 (11745921_a_at) / RFU CMKLR1 (11741424_a_at) / Fold change /veh CMKLR1 (11741424_a_at) / RFU LOC101060620 /// MAPK8IP1 (11723275_at) / Fold change /veh LOC101060620 /// MAPK8IP1 (11723275_at) / RFU SPTSSB (11747773_x_at) / Fold change /veh SPTSSB (11747773_x_at) / RFU PRSS12 (11739890_at) / Fold change /veh PRSS12 (11739890_at) / RFU BIN1 (11741810_x_at) / Fold change /veh BIN1 (11741810_x_at) / RFU WNT11 (11732464_a_at) / Fold change /veh WNT11 (11732464_a_at) / RFU C10orf10 (11716521_a_at) / Fold change /veh C10orf10 (11716521_a_at) / RFU C5orf56 (11738089_at) / Fold change /veh C5orf56 (11738089_at) / RFU CYB561 (11721691_x_at) / Fold change /veh CYB561 (11721691_x_at) / RFU ANKRD19P (11752326_a_at) / Fold change /veh ANKRD19P (11752326_a_at) / RFU OR2T12 /// OR2T33 /// OR2T8 (11738714_s_at) / Fold change /veh OR2T12 /// OR2T33 /// OR2T8 (11738714_s_at) / RFU VCAN (11748164_a_at) / Fold change /veh VCAN (11748164_a_at) / RFU JSRP1 (11732532_at) / Fold change /veh JSRP1 (11732532_at) / RFU KRTAP10-11 (11738290_x_at) / Fold change /veh KRTAP10-11 (11738290_x_at) / RFU MYO3A (11730013_a_at) / Fold change /veh MYO3A (11730013_a_at) / RFU EBF3 (11725865_a_at) / Fold change /veh EBF3 (11725865_a_at) / RFU CAMK2N1 (11719241_x_at) / Fold change /veh CAMK2N1 (11719241_x_at) / RFU C5orf56 (11738088_a_at) / Fold change /veh C5orf56 (11738088_a_at) / RFU OLFML3 (11715873_a_at) / Fold change /veh OLFML3 (11715873_a_at) / RFU LOC100653217 /// NTM (11731650_a_at) / Fold change /veh LOC100653217 /// NTM (11731650_a_at) / RFU MAPK11 (11762145_a_at) / Fold change /veh MAPK11 (11762145_a_at) / RFU FIZ1 (11724087_x_at) / Fold change /veh FIZ1 (11724087_x_at) / RFU OASL (11726364_x_at) / Fold change /veh OASL (11726364_x_at) / RFU SOX15 (11748057_x_at) / Fold change /veh SOX15 (11748057_x_at) / RFU CD79A (11719716_a_at) / Fold change /veh CD79A (11719716_a_at) / RFU HIST1H1D (11736915_at) / Fold change /veh HIST1H1D (11736915_at) / RFU CASKIN2 (11723855_a_at) / Fold change /veh CASKIN2 (11723855_a_at) / RFU LOC730098 (11760151_x_at) / Fold change /veh LOC730098 (11760151_x_at) / RFU OR4N2 (11742367_at) / Fold change /veh OR4N2 (11742367_at) / RFU PRRT2 (11749266_a_at) / Fold change /veh PRRT2 (11749266_a_at) / RFU SNX32 (11753110_a_at) / Fold change /veh SNX32 (11753110_a_at) / RFU CDHR5 (11726645_a_at) / Fold change /veh CDHR5 (11726645_a_at) / RFU RCAN1 (11760418_a_at) / Fold change /veh RCAN1 (11760418_a_at) / RFU FAM167A (11723789_a_at) / Fold change /veh FAM167A (11723789_a_at) / RFU FAM26E (11764081_at) / Fold change /veh FAM26E (11764081_at) / RFU ISYNA1 (11749810_s_at) / Fold change /veh ISYNA1 (11749810_s_at) / RFU ACY1 (11761880_at) / Fold change /veh ACY1 (11761880_at) / RFU 11764098_at / Fold change /veh 11764098_at / RFU SAMD14 (11745864_x_at) / Fold change /veh SAMD14 (11745864_x_at) / RFU NPB (11741838_a_at) / Fold change /veh NPB (11741838_a_at) / RFU TMPRSS6 (11731388_a_at) / Fold change /veh TMPRSS6 (11731388_a_at) / RFU KRTAP10-2 (11738614_at) / Fold change /veh KRTAP10-2 (11738614_at) / RFU ARHGAP8 /// PRR5-ARHGAP8 (11727945_x_at) / Fold change /veh ARHGAP8 /// PRR5-ARHGAP8 (11727945_x_at) / RFU KRTAP5-7 /// NADSYN1 (11734609_at) / Fold change /veh KRTAP5-7 /// NADSYN1 (11734609_at) / RFU RASL12 (11751679_a_at) / Fold change /veh RASL12 (11751679_a_at) / RFU CDKN2B (11736163_a_at) / Fold change /veh CDKN2B (11736163_a_at) / RFU PRF1 (11729649_at) / Fold change /veh PRF1 (11729649_at) / RFU, ZNF638 /// ZNF638-IT1 / Fold change vs veh, ZNF638 /// ZNF638-IT1 / RFU, PANK3 / Fold change vs veh, PANK3 / RFU, SH3YL1 / Fold change vs veh, SH3YL1 / RFU, ZEB2 / Fold change vs veh, ZEB2 / RFU, NRIP1 / Fold change vs veh, NRIP1 / RFU, PTTG1IP / Fold change vs veh, PTTG1IP / RFU, CAPN2 / Fold change vs veh, CAPN2 / RFU, MED14 / Fold change vs veh, MED14 / RFU, SNORA58 / Fold change vs veh, SNORA58 / RFU, C1orf63 / Fold change vs veh, C1orf63 / RFU, LRRFIP1 / Fold change vs veh, LRRFIP1 / RFU, NDUFAF7 / Fold change vs veh, NDUFAF7 / RFU, SLC12A2 / Fold change vs veh, SLC12A2 / RFU, IBTK / Fold change vs veh, IBTK / RFU, ESF1 / Fold change vs veh, ESF1 / Fold change vs veh, TMEM50B / RFU, TAOK1 / Fold change vs veh, TAOK1 / RFU, ACBD3 / Fold change vs veh, ACBD3 / RFU, TMA16 / Fold change vs veh, TMA16 / RFU, RWDD3 / Fold change vs veh, RWDD3 / RFU, BCAT1 / Fold change vs veh, BCAT1 / RFU, EDEM3 / Fold change vs veh, EDEM3 / RFU, TMEM33 / Fold change vs veh, TMEM33 / RFU, WDR75 / Fold change vs veh, WDR75 / RFU, AHCTF1 / Fold change vs veh, AHCTF1 / RFU, TFRC / Fold change vs veh, TFRC / RFU, ZDHHC17 / Fold change vs veh, ZDHHC17 / RFU, NOM1 / Fold change vs veh, NOM1 / RFU, ARL8B / Fold change vs veh, ARL8B / RFU, ZBTB11 / Fold change vs veh, ZBTB11 / RFU, TAMM41 / Fold change vs veh, TAMM41 / RFU, KIAA1704 /// LOC100996395 / Fold change vs veh, KIAA1704 /// LOC100996395 / RFU, ING1 / Fold change vs veh, ING1 / RFU, TRMT61B / Fold change vs veh, TRMT61B / RFU, FUBP3 / Fold change vs veh, FUBP3 / RFU, TP53 / Fold change vs veh, TP53 / RFU, TNKS2 / Fold change vs veh, TNKS2 / RFU, ZFP14 / Fold change vs veh, ZFP14 / RFU, ACTR2 / Fold change vs veh, ACTR2 / RFU, PPP3R1 / Fold change vs veh, PPP3R1 / RFU, PIK3R1 / Fold change vs veh, PIK3R1 / RFU, HNRNPA1 / Fold change vs veh, HNRNPA1 / RFU, RNF170 / Fold change vs veh, RNF170 / RFU, ZNF28 / Fold change vs veh, ZNF28 / RFU, RNGTT / Fold change vs veh, RNGTT / RFU, OGT / Fold change vs veh, OGT / RFU, BRD1 / Fold change vs veh, BRD1 / RFU, MARS / Fold change vs veh, MARS / RFU, ZNF655 / Fold change vs veh, ZNF655 / RFU, FAHD1 / Fold change vs veh, FAHD1 / RFU, BDP1 / Fold change vs veh, BDP1 / RFU, LRRCC1 / Fold change vs veh, LRRCC1 / RFU, ARID1A / Fold change vs veh, ARID1A / RFU, ZNF146 / Fold change vs veh, ZNF146 / RFU, ZNF330 / Fold change vs veh, ZNF330 / RFU, GPN3 / Fold change vs veh, GPN3 / RFU, C9orf123 / Fold change vs veh, C9orf123 / RFU, N4BP2L2 / Fold change vs veh, N4BP2L2 / RFU, ARFIP1 / Fold change vs veh, ARFIP1 / RFU, FAM179B / Fold change vs veh, FAM179B / RFU, BCL10 / Fold change vs veh, BCL10 / RFU, UHRF1BP1L / Fold change vs veh, UHRF1BP1L / RFU, BET1 / Fold change vs veh, BET1 / RFU, CNOT2 / Fold change vs veh, CNOT2 / RFU, ZNF268 / Fold change vs veh, ZNF268 / Fold change vs veh, ZNF507 / RFU, DGCR2 / Fold change vs veh, DGCR2 / RFU, WDSUB1 / Fold change vs veh, WDSUB1 / Fold change vs veh, HSP90B1 /// MIR3652 / RFU, ADSS / Fold change vs veh, ADSS / RFU, GK / Fold change vs veh, GK / RFU, ZNF148 / Fold change vs veh, ZNF148 / RFU, TAF9 / Fold change vs veh, TAF9 / RFU, SLC1A5 / Fold change vs veh, SLC1A5 / RFU, SLMO2 / Fold change vs veh, SLMO2 / RFU, ABCC4 / Fold change vs veh, ABCC4 / RFU, LOC101060439 /// RAP1B / Fold change vs veh, LOC101060439 /// RAP1B / RFU, RFX7 / Fold change vs veh, RFX7 / RFU, GTPBP10 / Fold change vs veh, GTPBP10 / RFU, CNEP1R1 / Fold change vs veh, CNEP1R1 / RFU, BIVM-ERCC5 /// ERCC5 / Fold change vs veh, BIVM-ERCC5 /// ERCC5 / RFU, ILF3 / Fold change vs veh, ILF3 / RFU 11762660_at / Fold change /veh 11762660_at / RFU VCAN (11757783_s_at) / Fold change /veh VCAN (11757783_s_at) / RFU DDX43 (11728927_at) / Fold change /veh DDX43 (11728927_at) / RFU KRT8 (11758188_x_at) / Fold change /veh KRT8 (11758188_x_at) / RFU NKD1 (11759106_at) / Fold change /veh NKD1 (11759106_at) / RFU SRD5A1 (11742802_a_at) / Fold change /veh SRD5A1 (11742802_a_at) / RFU TPSAB1 /// TPSB2 (11721975_s_at) / Fold change /veh TPSAB1 /// TPSB2 (11721975_s_at) / RFU GSTM3 (11746129_a_at) / Fold change /veh GSTM3 (11746129_a_at) / RFU IL23R (11737362_x_at) / Fold change /veh IL23R (11737362_x_at) / RFU TMEM51 (11727254_a_at) / Fold change /veh TMEM51 (11727254_a_at) / RFU PIWIL2 (11732686_x_at) / Fold change /veh PIWIL2 (11732686_x_at) / RFU ORM1 (11744905_x_at) / Fold change /veh ORM1 (11744905_x_at) / RFU CCDC152 (11743942_at) / Fold change /veh CCDC152 (11743942_at) / RFU ECM1 (11717891_a_at) / Fold change /veh ECM1 (11717891_a_at) / RFU IL23R (11748794_a_at) / Fold change /veh IL23R (11748794_a_at) / RFU TNFAIP8L3 (11732012_x_at) / Fold change /veh TNFAIP8L3 (11732012_x_at) / RFU MBOAT4 (11741988_at) / Fold change /veh MBOAT4 (11741988_at) / RFU 11764193_at / Fold change /veh 11764193_at / RFU TMEM53 (11763286_at) / Fold change /veh TMEM53 (11763286_at) / RFU MAGEB2 (11727129_at) / Fold change /veh MAGEB2 (11727129_at) / RFU TMEM200A (11744735_a_at) / Fold change /veh TMEM200A (11744735_a_at) / RFU CCDC152 (11751479_a_at) / Fold change /veh CCDC152 (11751479_a_at) / RFU FAM211A (11726209_a_at) / Fold change /veh FAM211A (11726209_a_at) / RFU RGS16 (11746705_a_at) / Fold change /veh RGS16 (11746705_a_at) / RFU VCAN (11755009_s_at) / Fold change /veh VCAN (11755009_s_at) / RFU RHOB (11743442_s_at) / Fold change /veh RHOB (11743442_s_at) / RFU RGS16 (11720943_a_at) / Fold change /veh RGS16 (11720943_a_at) / RFU RGS16 (11720944_at) / Fold change /veh RGS16 (11720944_at) / RFU, VPS4B / Fold change vs veh, VPS4B / RFU, CREB1 / Fold change vs veh, CREB1 / RFU, DNAJC13 / Fold change vs veh, DNAJC13 / RFU, GNAQ / Fold change vs veh, GNAQ / RFU, CDK5R1 / Fold change vs veh, CDK5R1 / RFU, ZRANB3 / Fold change vs veh, ZRANB3 / RFU, CUL4A / Fold change vs veh, CUL4A / RFU, CCNY / Fold change vs veh, CCNY / RFU, UFL1 / Fold change vs veh, UFL1 / RFU, COG3 / Fold change vs veh, COG3 / RFU, DIAPH2 / Fold change vs veh, DIAPH2 / RFU, SKA2 / Fold change vs veh, SKA2 / RFU, AFF3 / Fold change vs veh, AFF3 / RFU, LMF1 / Fold change vs veh, LMF1 / RFU, IPO11 / Fold change vs veh, IPO11 / RFU, DFFB / Fold change vs veh, DFFB / RFU, FOXP1 / Fold change vs veh, FOXP1 / RFU, CARD8 / Fold change vs veh, CARD8 / RFU, STRN3 / Fold change vs veh, STRN3 / RFU, ADK / Fold change vs veh, ADK / RFU, RASSF2 / Fold change vs veh, RASSF2 / RFU, WIPF1 / Fold change vs veh, WIPF1 / RFU, LARP1B / Fold change vs veh, LARP1B / RFU, RASA1 / Fold change vs veh, RASA1 / RFU, RB1 / Fold change vs veh, RB1 / RFU, PPFIA1 / Fold change vs veh, PPFIA1 / RFU, MAT2A / Fold change vs veh, MAT2A / RFU, CCT5 / Fold change vs veh, CCT5 / RFU, WDR92 / Fold change vs veh, WDR92 / RFU, CUX1 / Fold change vs veh, CUX1 / RFU, TTC7A / Fold change vs veh, TTC7A / RFU, TMEM135 / Fold change vs veh, TMEM135 / RFU, DEPTOR / Fold change vs veh, DEPTOR / RFU, CPM / Fold change vs veh, CPM / RFU, DNAJB6 / Fold change vs veh, DNAJB6 / RFU, CACNA2D3 / Fold change vs veh, CACNA2D3 / RFU, DTX4 / Fold change vs veh, DTX4 / RFU, TFCP2 / Fold change vs veh, TFCP2 / RFU, GMCL1 /// GMCL1P1 / Fold change vs veh, GMCL1 /// GMCL1P1 / RFU, AEBP2 / Fold change vs veh, AEBP2 / RFU, SNHG1 /// SNORD22 /// SNORD25 /// SNORD26 /// SNORD27 /// SNORD28 /// SNORD29 /// SNORD31 / Fold change vs veh, SNHG1 /// SNORD22 /// SNORD25 /// SNORD26 /// SNORD27 /// SNORD28 /// SNORD29 /// SNORD31 / Fold change (Aza/veh), C12orf56 (ProbeSet 11735607_a_at) / Fold change (ACY-1035/veh), C12orf56 (ProbeSet 11735607_a_at) / Fold change (Aza/veh), FGFR1OP (ProbeSet 11751329_s_at) / Fold change (ACY-1035/veh), FGFR1OP (ProbeSet 11751329_s_at) / Fold change (Aza/veh), VPS36 (ProbeSet 11739960_a_at) / Fold change (ACY-1035/veh), VPS36 (ProbeSet 11739960_a_at) / RFU SYPL1 (11715823_x_at) / Fold change /veh SYPL1 (11715823_x_at) / RFU IGFBP7 (11715501_s_at) / Fold change /veh IGFBP7 (11715501_s_at) / RFU REEP3 (11722064_at) / Fold change /veh REEP3 (11722064_at) / RFU IGLL1 (11728026_x_at) / Fold change /veh IGLL1 (11728026_x_at): dose or concentration left out as unconfirmed
Settings: MV-4-11 cells, 48 hours

## Nc1ccc(-c2cccs2)cc1NC(=O)c1ccc2c(c1)cc(C1CC1)n2CCN1CCOCC1 [ACY-1035]
  RFU SNX32 (11753110_a_at): 6.46 RFU
